Reference: US20250195463A1, “ORGANOMETALLIC COMPLEX, CONTROLLED-RELEASE MULTI-FUNCTIONAL DRUG, PHARMACEUTICAL COMPOSITION, PROCESSES FOR THE PREPARATION THEREOF AND THEIR USE” (FACULDADE DE CIÊNCIAS DA UNIVERSIDADE DE LISBOA, priority 2022, published 2025)
Like-named read-outs stand apart in the source and are kept apart here.

How the values were obtained:
[1] = Stability in organic medium (dimethyl sulfoxide) by UV-Vis spectroscopy; format: physicochemical; settings: for Relative variation of the maximum absorbance of the π→π* transitions: band 289-300 nm (λmax in column head); for Relative variation of the maximum absorbance of the charge transfer bands: band 357-425 nm (λmax in column head)
In short: (§1)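 UV-Vis spectra (270-900 nm) were recorded at intervals from 0 to 24 h, at room temperature in the dark. Solvents were 100% DMSO, or 5% or 10% DMSO in DMEM depending on complex, at 7.0×10^-5 M to 3.0×10^-4 M.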

[2] = Stability in aqueous medium (dimethyl sulfoxide/Dulbecco's Modified Eagle Medium) by UV-Vis spectroscopy; format: physicochemical; settings: 5% dimethyl sulfoxide/95% Dulbecco's Modified Eagle Medium; for Relative variation of the maximum absorbance of the π→π* transitions: band 292-296 nm (λmax in column head); for Relative variation of the maximum absorbance of the charge transfer bands: band 358-400 nm (λmax in column head)
In short: as §1

MDA-MB-231 (FGFR−) = test: MTT cytotoxicity assay; settings: for IC50 range in words: Example 24; for IC50: read-out: Cytotoxic activity expressed as IC50, 48 h, 37° C.
In short: (§2)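 Cells were exposed continuously for 48 h at 37 °C to compounds at 0.1 to 100 μM. In pH-controlled runs, RuPC1 stock was pre-incubated 48 h at pH 6.8 or 7.4, then tested at 0.1 to 50 μM. Viability was read by MTT (0.5 mg/mL, 3 h) absorbance at 570 nm versus untreated cells, with IC50 fitted.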

MCF-7 (FGFR−) = test: MTT cytotoxicity assay; settings: read-out: Cytotoxic activity expressed as IC50; Table 6; MCF-7 (FGFR−); 48 h, 37° C.
In short: as §2

MDA-MB-134-VI (FGFR+) = test: MTT cytotoxicity assay; settings: read-out: Cytotoxic activity expressed as IC50; Table 6; MDA-MB-134-VI (FGFR+); 48 h, 37° C.
In short: as §2

SK-BR-3 (FGFR+) = test: MTT cytotoxicity assay; settings: read-out: Cytotoxic activity expressed as IC50; Table 6; SK-BR-3 (FGFR+); 48 h, 37° C.
In short: as §2

SMILES: O=C(Cc1ccccc1)C1=C[CH]([Ru-]2([PH](c3ccccc3)(c3ccccc3)c3ccccc3)[n+]3ccccc3-c3cccc[n+]32)C=C1.O=S(=O)([O-])C(F)(F)F (stereo not drawn) [compound 9]
- Relative variation of the maximum absorbance of the π→π* transitions ([1]; time 0 h): 0.0%
- Relative variation of the maximum absorbance of the charge transfer bands ([1]; time 0 h): 0.0%
- Relative variation of the maximum absorbance of the π→π* transitions ([1]; time 0.25 h): 0.0%
- Relative variation of the maximum absorbance of the charge transfer bands ([1]; time 0.25 h): 0.2%
- Relative variation of the maximum absorbance of the π→π* transitions ([1]; time 0.5 h): −0.2%
- Relative variation of the maximum absorbance of the charge transfer bands ([1]; time 0.5 h): 0.2%
- Relative variation of the maximum absorbance of the π→π* transitions ([1]; time 0.75 h): −0.3%
- Relative variation of the maximum absorbance of the charge transfer bands ([1]; time 0.75 h): 0.2%
- Relative variation of the maximum absorbance of the π→π* transitions ([1]; time 1 h): −0.3%
- Relative variation of the maximum absorbance of the charge transfer bands ([1]; time 1 h): 0.3%
- Relative variation of the maximum absorbance of the π→π* transitions ([1]; time 2 h): −0.3%
- Relative variation of the maximum absorbance of the charge transfer bands ([1]; time 2 h): 0.6%
- Relative variation of the maximum absorbance of the π→π* transitions ([1]; time 3 h): −0.1%
- Relative variation of the maximum absorbance of the charge transfer bands ([1]; time 3 h): 0.9%
- Relative variation of the maximum absorbance of the π→π* transitions ([1]; time 4 h): −0.1%
- Relative variation of the maximum absorbance of the charge transfer bands ([1]; time 4 h): 0.6%
- Relative variation of the maximum absorbance of the π→π* transitions ([1]; time 5 h): −0.3%
- Relative variation of the maximum absorbance of the charge transfer bands ([1]; time 5 h): 0.4%
- Relative variation of the maximum absorbance of the π→π* transitions ([1]; time 6 h): −0.2%
- Relative variation of the maximum absorbance of the charge transfer bands ([1]; time 6 h): 0.7%
- Relative variation of the maximum absorbance of the π→π* transitions ([1]; time 24 h): −0.1%
- Relative variation of the maximum absorbance of the charge transfer bands ([1]; time 24 h): 0.8%
- Relative variation of the maximum absorbance of the π→π* transitions ([2]; time 0 h): 0.0%
- Relative variation of the maximum absorbance of the charge transfer bands ([2]; time 0 h): 0.0%
- Relative variation of the maximum absorbance of the π→π* transitions ([2]; time 0.25 h): −0.2%
- Relative variation of the maximum absorbance of the charge transfer bands ([2]; time 0.25 h): −0.7%
- Relative variation of the maximum absorbance of the π→π* transitions ([2]; time 0.5 h): −0.3%
- Relative variation of the maximum absorbance of the charge transfer bands ([2]; time 0.5 h): −0.8%
- Relative variation of the maximum absorbance of the π→π* transitions ([2]; time 0.75 h): −0.5%
- Relative variation of the maximum absorbance of the charge transfer bands ([2]; time 0.75 h): −0.9%
- Relative variation of the maximum absorbance of the π→π* transitions ([2]; time 1 h): −0.3%
- Relative variation of the maximum absorbance of the charge transfer bands ([2]; time 1 h): −1.0%
- Relative variation of the maximum absorbance of the π→π* transitions ([2]; time 2 h): −0.2%
- Relative variation of the maximum absorbance of the charge transfer bands ([2]; time 2 h): −1.2%
- Relative variation of the maximum absorbance of the π→π* transitions ([2]; time 3 h): −0.3%
- Relative variation of the maximum absorbance of the charge transfer bands ([2]; time 3 h): −1.4%
- Relative variation of the maximum absorbance of the π→π* transitions ([2]; time 4 h): −0.4%
- Relative variation of the maximum absorbance of the charge transfer bands ([2]; time 4 h): −1.5%
- Relative variation of the maximum absorbance of the π→π* transitions ([2]; time 5 h): −0.2%
- Relative variation of the maximum absorbance of the charge transfer bands ([2]; time 5 h): −1.6%
- Relative variation of the maximum absorbance of the π→π* transitions ([2]; time 6 h): −0.5%
- Relative variation of the maximum absorbance of the charge transfer bands ([2]; time 6 h): −1.7%
- Relative variation of the maximum absorbance of the π→π* transitions ([2]; time 24 h): 4.5%
- Relative variation of the maximum absorbance of the charge transfer bands ([2]; time 24 h): −0.2%
- IC50 range in words (MDA-MB-231 (FGFR−); MDA-MB-231): sub-micromolar range
- IC50 (MDA-MB-231 (FGFR−); Table 5, MDA-MB-231): 0.31 µM

SMILES: NNC(=O)C1=C[CH]([Ru-]2([PH](c3ccccc3)(c3ccccc3)c3ccccc3)[n+]3ccccc3-c3cccc[n+]32)C=C1.O=S(=O)([O-])C(F)(F)F (stereo not drawn) [compound 4]
- Relative variation of the maximum absorbance of the π→π* transitions ([1]; time 0 h): 0.0%
- Relative variation of the maximum absorbance of the charge transfer bands ([1]; time 0 h): 0.0%
- Relative variation of the maximum absorbance of the π→π* transitions ([1]; time 0.25 h): 0.3%
- Relative variation of the maximum absorbance of the charge transfer bands ([1]; time 0.25 h): 0.0%
- Relative variation of the maximum absorbance of the π→π* transitions ([1]; time 0.5 h): 0.3%
- Relative variation of the maximum absorbance of the charge transfer bands ([1]; time 0.5 h): −0.1%
- Relative variation of the maximum absorbance of the π→π* transitions ([1]; time 0.75 h): 0.3%
- Relative variation of the maximum absorbance of the charge transfer bands ([1]; time 0.75 h): −0.2%
- Relative variation of the maximum absorbance of the π→π* transitions ([1]; time 1 h): 0.5%
- Relative variation of the maximum absorbance of the charge transfer bands ([1]; time 1 h): 0.1%
- Relative variation of the maximum absorbance of the π→π* transitions ([1]; time 2 h): 0.4%
- Relative variation of the maximum absorbance of the charge transfer bands ([1]; time 2 h): −0.2%
- Relative variation of the maximum absorbance of the π→π* transitions ([1]; time 3 h): 0.6%
- Relative variation of the maximum absorbance of the charge transfer bands ([1]; time 3 h): 0.2%
- Relative variation of the maximum absorbance of the π→π* transitions ([1]; time 4 h): 0.7%
- Relative variation of the maximum absorbance of the charge transfer bands ([1]; time 4 h): 0.9%
- Relative variation of the maximum absorbance of the π→π* transitions ([1]; time 5 h): −0.3%
- Relative variation of the maximum absorbance of the charge transfer bands ([1]; time 5 h): 1.0%
- Relative variation of the maximum absorbance of the π→π* transitions ([1]; time 6 h): −0.2%
- Relative variation of the maximum absorbance of the charge transfer bands ([1]; time 6 h): 0.6%
- Relative variation of the maximum absorbance of the π→π* transitions ([1]; time 24 h): −0.2%
- Relative variation of the maximum absorbance of the charge transfer bands ([1]; time 24 h): 1.6%
- Relative variation of the maximum absorbance of the π→π* transitions ([2]; time 0 h): 0.0%
- Relative variation of the maximum absorbance of the charge transfer bands ([2]; time 0 h): 0.0%
- Relative variation of the maximum absorbance of the π→π* transitions ([2]; time 0.25 h): 0.1%
- Relative variation of the maximum absorbance of the charge transfer bands ([2]; time 0.25 h): −0.2%
- Relative variation of the maximum absorbance of the π→π* transitions ([2]; time 0.5 h): 0.1%
- Relative variation of the maximum absorbance of the charge transfer bands ([2]; time 0.5 h): −0.7%
- Relative variation of the maximum absorbance of the π→π* transitions ([2]; time 0.75 h): −0.4%
- Relative variation of the maximum absorbance of the charge transfer bands ([2]; time 0.75 h): −1.3%
- Relative variation of the maximum absorbance of the π→π* transitions ([2]; time 1 h): −0.3%
- Relative variation of the maximum absorbance of the charge transfer bands ([2]; time 1 h): −0.9%
- Relative variation of the maximum absorbance of the π→π* transitions ([2]; time 2 h): −0.6%
- Relative variation of the maximum absorbance of the charge transfer bands ([2]; time 2 h): −0.7%
- Relative variation of the maximum absorbance of the π→π* transitions ([2]; time 3 h): −0.9%
- Relative variation of the maximum absorbance of the charge transfer bands ([2]; time 3 h): −1.4%
- Relative variation of the maximum absorbance of the π→π* transitions ([2]; time 4 h): −1.2%
- Relative variation of the maximum absorbance of the charge transfer bands ([2]; time 4 h): −0.7%
- Relative variation of the maximum absorbance of the π→π* transitions ([2]; time 5 h): −1.5%
- Relative variation of the maximum absorbance of the charge transfer bands ([2]; time 5 h): −2.1%
- Relative variation of the maximum absorbance of the π→π* transitions ([2]; time 6 h): −1.7%
- Relative variation of the maximum absorbance of the charge transfer bands ([2]; time 6 h): −2.3%
- Relative variation of the maximum absorbance of the π→π* transitions ([2]; time 24 h): 0.1%
- Relative variation of the maximum absorbance of the charge transfer bands ([2]; time 24 h): 3.0%
- IC50 (MCF-7 (FGFR−)): 5.8 ± 0.8 µM
- IC50 (MDA-MB-134-VI (FGFR+)): 7.1 ± 1.3 µM
- IC50 range in words (MDA-MB-231 (FGFR−); MDA-MB-231): low micromolar range
- IC50 (MDA-MB-231 (FGFR−); Table 5, MDA-MB-231): 7.1 µM
- IC50 (MDA-MB-231 (FGFR−); Table 6, MDA-MB-231 (FGFR−)): 6.1 ± 1.3 µM
- IC50 (SK-BR-3 (FGFR+)): 7.5 ± 1 µM
